From patent US20240327408A1, “COMPOUNDS CONTAINING TETRAHYDRONAPHTHYRIDINONE OR TETRAHYDROPYRIDOPYRIMIDINONE SKELETON, PREPARATION METHOD THEREFOR AND PHARMACEUTICAL USE THEREOF” (CHINA PHARMACEUTICAL UNIVERSITY, priority 2021, published 2024)

Legend:
hClpP = target: T1, hClpP (Homo sapiens, UniProt Q16740); assay: activating ClpP hydrolysis of FITC-casein (fluorescence kinetic detection); format: biochemical; conditions: hClpP 1 μM, FITC-Casein 4 μM, 37° C.
T1 construct: made in house
In short: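 hClpP at 1 μM final preincubated with compounds (assay-buffer dilutions 200 μM–2 nM, before mixing) 30 min at 37 °C, then 4 μM final FITC-casein added. Fluorescence read kinetically at 37 °C every 1 min for 15 min, duplicate wells.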

MV4; 11 cells = assay: inhibiting the growth of MV4; 11 cells; format: cell-based; conditions: Homo sapiens

T1 sequence (Q16740 57-277): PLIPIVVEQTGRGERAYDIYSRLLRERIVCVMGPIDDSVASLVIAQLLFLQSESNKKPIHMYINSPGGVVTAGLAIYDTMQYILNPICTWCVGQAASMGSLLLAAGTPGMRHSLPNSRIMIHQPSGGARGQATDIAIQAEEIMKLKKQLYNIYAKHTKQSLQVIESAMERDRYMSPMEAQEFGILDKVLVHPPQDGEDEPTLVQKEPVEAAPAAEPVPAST

Structure (SMILES) | EC50 (hClpP) | IC50 (MV4; 11 cells)
O=c1c2c(n3ccnc3n1Cc1ccc(F)cc1F)CCN(Cc1ccccc1)C2 [Compound I-122, 7-benzyl-4-(2,4-difluorobenzyl)-6,7,8,9-tetrahydroimidazo[1,2-a]pyrido[3,4-e]pyrimidine-5(4H)-one] | < 1 µM | < 1 µM
O=c1c2c(n3ccnc3n1Cc1ccc(F)cc1F)CCN(Cc1cccc(F)c1)C2 [Compound I-123, 7-(3-fluorobenzyl)-4-(2,4-difluorobenzyl)-6,7,8,9-tetrahydroimidazo[1,2-a]pyrido[3,4-e]pyrimidine-5(4H)-one] | < 1 µM | < 1 µM
O=c1c2c(n3ccnc3n1Cc1ccc(F)cc1F)CCN(Cc1cccc(Cl)c1)C2 [Compound I-124, 7-(3-chlorobenzyl)-4-(2,4-difluorobenzyl)-6,7,8,9-tetrahydroimidazo[1,2-a]pyrido[3,4-e]pyrimidine-5(4H)-one] | < 1 µM | < 1 µM
Cc1cccc(CN2CCc3c(c(=O)n(Cc4ccc(F)cc4F)c4nccn34)C2)c1 [Compound I-125, 7-(3-methylbenzyl)-4-(2,4-difluorobenzyl)-6,7,8,9-tetrahydroimidazo[1,2-a]pyrido[3,4-e]pyrimidine-5(4H)-one] | < 1 µM | < 1 µM
N#Cc1cccc(CN2CCc3c(c(=O)n(Cc4ccc(F)cc4F)c4nccn34)C2)c1 [Compound I-126, 7-(3-cyanobenzyl)-4-(2,4-difluorobenzyl)-6,7,8,9-tetrahydroimidazo[1,2-a]pyrido[3,4-e]pyrimidine-5(4H)-one] | < 1 µM | < 1 µM
Cc1ccc(Cn2c(=O)c3c(n4ccnc24)CCN(Cc2ccccc2)C3)cc1 [Compound I-132, 7-benzyl-4-(4-methylbenzyl)-6,7,8,9-tetrahydroimidazo[1,2-a]pyrido[3,4-e]pyrimidine-5(4H)-one] | < 1 µM | < 1 µM
Cc1ccc(Cn2c(=O)c3c(n4ccnc24)CCN(Cc2cccc(F)c2)C3)cc1 [Compound I-133, 7-(3-fluorobenzyl)-4-(4-methylbenzyl)-6,7,8,9-tetrahydroimidazo[1,2-a]pyrido[3,4-e]pyrimidine-5(4H)-one] | < 1 µM | < 1 µM
Cc1ccc(Cn2c(=O)c3c(n4ccnc24)CCN(Cc2cccc(Cl)c2)C3)cc1 [Compound I-134, 7-(3-chlorobenzyl)-4-(4-methylbenzyl)-6,7,8,9-tetrahydroimidazo[1,2-a]pyrido[3,4-e]pyrimidine-5(4H)-one] | < 1 µM | < 1 µM
Cc1ccc(Cn2c(=O)c3c(n4ccnc24)CCN(Cc2cccc(C)c2)C3)cc1 [Compound I-135, 7-(3-methylbenzyl)-4-(4-methylbenzyl)-6,7,8,9-tetrahydroimidazo[1,2-a]pyrido[3,4-e]pyrimidine-5(4H)-one] | < 1 µM | < 1 µM
CCc1ccc(Cn2c(=O)c3c(n4ccnc24)CCN(Cc2ccccc2)C3)cc1 [Compound I-137, 7-benzyl-4-(4-ethylbenzyl)-6,7,8,9-tetrahydroimidazo[1,2-a]pyrido[3,4-e]pyrimidine-5(4H)-one] | < 1 µM | < 1 µM
CCc1ccc(Cn2c(=O)c3c(n4ccnc24)CCN(Cc2cccc(F)c2)C3)cc1 [Compound I-138, 7-(3-fluorobenzyl)-4-(4-ethylbenzyl)-6,7,8,9-tetrahydroimidazo[1,2-a]pyrido[3,4-e]pyrimidine-5(4H)-one] | < 1 µM | < 1 µM
CCc1ccc(Cn2c(=O)c3c(n4ccnc24)CCN(Cc2cccc(Cl)c2)C3)cc1 [Compound I-139, 7-(3-chlorobenzyl)-4-(4-ethylbenzyl)-6,7,8,9-tetrahydroimidazo[1,2-a]pyrido[3,4-e]pyrimidine-5(4H)-one] | < 1 µM | < 1 µM
CCc1ccc(Cn2c(=O)c3c(n4ccnc24)CCN(Cc2cccc(C)c2)C3)cc1 [Compound I-140, 7-(3-methylbenzyl)-4-(4-ethylbenzyl)-6,7,8,9-tetrahydroimidazo[1,2-a]pyrido[3,4-e]pyrimidine-5(4H)-one] | < 1 µM | < 1 µM
COc1ccc(Cn2c(=O)c3c(n4ccnc24)CCN(Cc2ccccc2)C3)cc1 [Compound I-142, 7-benzyl-4-(4-methoxybenzyl)-6,7,8,9-tetrahydroimidazo[1,2-a]pyrido[3,4-e]pyrimidine-5(4H)-one] | < 1 µM | < 1 µM
COc1ccc(Cn2c(=O)c3c(n4ccnc24)CCN(Cc2cccc(F)c2)C3)cc1 [Compound I-143, 7-(3-fluorobenzyl)-4-(4-methoxybenzyl)-6,7,8,9-tetrahydroimidazo[1,2-a]pyrido[3,4-e]pyrimidine-5(4H)-one] | < 1 µM | < 1 µM
COc1ccc(Cn2c(=O)c3c(n4ccnc24)CCN(Cc2cccc(Cl)c2)C3)cc1 [Compound I-144, 7-(3-chlorobenzyl)-4-(4-methoxybenzyl)-6,7,8,9-tetrahydroimidazo[1,2-a]pyrido[3,4-e]pyrimidine-5(4H)-one] | < 1 µM | < 1 µM
COc1ccc(Cn2c(=O)c3c(n4ccnc24)CCN(Cc2cccc(C)c2)C3)cc1 [Compound I-145, 7-(3-methylbenzyl)-4-(4-methoxybenzyl)-6,7,8,9-tetrahydroimidazo[1,2-a]pyrido[3,4-e]pyrimidine-5(4H)-one] | < 1 µM | < 1 µM
O=c1c2c(n3ccnc3n1Cc1ccc3c(c1)OCO3)CCN(Cc1cccc(Cl)c1)C2 [Compound I-147, 7-(3-chlorobenzyl)-4-([1,3]benzodioxol-5-ylmethyl)-6,7,8,9-tetrahydroimidazo[1,2-a]pyrido[3,4-e]pyrimidine-5(4H)-one] | 1 to 10 µM | 1 to 10 µM
O=c1c2c(n3ccnc3n1Cc1ccc3c(c1)OCCO3)CCN(Cc1cccc(Cl)c1)C2 [Compound I-148, 7-(3-chlorobenzyl)-4-((2,3-dihydro[1,4]benzodioxin-6-yl)methyl)-6,7,8,9-tetrahydroimidazo[1,2-a]pyrido[3,4-e]pyrimidine-5(4H)-one] | 1 to 10 µM | 1 to 10 µM

More lines, now with the values ahead:

EC50 (hClpP) | IC50 (MV4; 11 cells) | Structure (SMILES)
< 1 µM | < 1 µM | O=c1c2c(n3ccnc3n1Cc1ccc(C(F)(F)F)cc1)CCN(Cc1ccccc1)C2 [Compound I-127, 7-benzyl-4-(4-trifluoromethylbenzyl)-6,7,8,9-tetrahydroimidazo[1,2-a]pyrido[3,4-e]pyrimidine-5(4H)-one]
< 1 µM | < 1 µM | O=c1c2c(n3ccnc3n1Cc1ccc(C(F)(F)F)cc1)CCN(Cc1cccc(F)c1)C2 [Compound I-128, 7-(3-fluorobenzyl)-4-(4-trifluoromethylbenzyl)-6,7,8,9-tetrahydroimidazo[1,2-a]pyrido[3,4-e]pyrimidine-5(4H)-one]
< 1 µM | < 1 µM | Cc1cccc(CN2CCc3c(c(=O)n(Cc4ccc(C(F)(F)F)cc4)c4nccn34)C2)c1 [Compound I-130, 7-(3-methylbenzyl)-4-(4-trifluoromethylbenzyl)-6,7,8,9-tetrahydroimidazo[1,2-a]pyrido[3,4-e]pyrimidine-5(4H)-one]
< 1 µM | < 1 µM | N#Cc1cccc(CN2CCc3c(c(=O)n(Cc4ccc(C(F)(F)F)cc4)c4nccn34)C2)c1 [Compound I-131, 7-(3-cyanobenzyl)-4-(4-trifluoromethylbenzyl)-6,7,8,9-tetrahydroimidazo[1,2-a]pyrido[3,4-e]pyrimidine-5(4H)-one]
< 1 µM | < 1 µM | Cc1ccc(Cn2c(=O)c3c(n4ccnc24)CCN(Cc2cccc(C#N)c2)C3)cc1 [Compound I-136, 7-(3-cyanobenzyl)-4-(4-methylbenzyl)-6,7,8,9-tetrahydroimidazo[1,2-a]pyrido[3,4-e]pyrimidine-5(4H)-one]
< 1 µM | < 1 µM | CCc1ccc(Cn2c(=O)c3c(n4ccnc24)CCN(Cc2cccc(C#N)c2)C3)cc1 [Compound I-141, 7-(3-cyanobenzyl)-4-(4-ethylbenzyl)-6,7,8,9-tetrahydroimidazo[1,2-a]pyrido[3,4-e]pyrimidine-5(4H)-one]
< 1 µM | < 1 µM | COc1ccc(Cn2c(=O)c3c(n4ccnc24)CCN(Cc2cccc(C#N)c2)C3)cc1 [Compound I-146, 7-(3-cyanobenzyl)-4-(4-methoxybenzyl)-6,7,8,9-tetrahydroimidazo[1,2-a]pyrido[3,4-e]pyrimidine-5(4H)-one]
1 to 10 µM | 1 to 10 µM | O=c1c2c(n3ncnc3n1Cc1ccc(C(F)(F)F)cc1)CCN(Cc1ccccc1)C2 [Compound I-149, 4-(4-trifluoromethylbenzyl)-7-benzyl-6,7,8,9-tetrahydropyrido[3,4-e][1,2,4]triazolo[1,5-a]pyrimidine-5(4H)-one]
1 to 10 µM | 1 to 10 µM | O=c1c2c(n3ncnc3n1Cc1ccc(C(F)(F)F)cc1)CCN(Cc1cccc(Cl)c1)C2 [Compound I-150, 4-(4-trifluoromethylbenzyl)-7-(3-chlorobenzyl)-6,7,8,9-tetrahydropyrido[3,4-e][1,2,4]triazolo[1,5-a]pyrimidine-5(4H)-one]
1 to 10 µM | 1 to 10 µM | N#Cc1cccc(CN2CCc3c(c(=O)n(Cc4ccc(C(F)(F)F)cc4)c4ncnn34)C2)c1 [Compound I-151, 4-(4-trifluoromethylbenzyl)-7-(3-cyanobenzyl)-6,7,8,9-tetrahydropyrido[3,4-e][1,2,4]triazolo[1,5-a]pyrimidine-5(4H)-one]
1 to 10 µM | 1 to 10 µM | O=c1c2c(n3ncnc3n1Cc1ccc(Cl)cc1)CCN(Cc1ccccc1)C2 [Compound I-152, 4-(4-chlorobenzyl)-7-benzyl-6,7,8,9-tetrahydropyrido[3,4-e][1,2,4]triazolo[1,5-a]pyrimidine-5(4H)-one]
1 to 10 µM | 1 to 10 µM | O=c1c2c(n3ncnc3n1Cc1ccc(Cl)cc1)CCN(Cc1cccc(F)c1)C2 [Compound I-153, 4-(4-chlorobenzyl)-7-(3-fluorobenzyl)-6,7,8,9-tetrahydropyrido[3,4-e][1,2,4]triazolo[1,5-a]pyrimidine-5(4H)-one]
